Assay results published in patent US10040781B2, “Tank-binding kinase inhibitor compounds” (Gilead Sciences, Inc., priority 2014, dated 2018).

What was measured:
hJAK2 = hJAK2 (Homo sapiens (Human), UniProt O60674); test: hJAK2 LANCE TR-FRET enzymatic assay; type: biochemical; details: read-out: JAK2 IC50
IKKε = IKKε (Homo sapiens (Human), UniProt Q14164); test: IKKε TR-FRET enzymatic assay; type: biochemical; details: TR-FRET, 2×Km ATP; geometric mean of minimum four determinations; read-out: IKKe IC50
Sequence of IKKε (Q14164 whole entry): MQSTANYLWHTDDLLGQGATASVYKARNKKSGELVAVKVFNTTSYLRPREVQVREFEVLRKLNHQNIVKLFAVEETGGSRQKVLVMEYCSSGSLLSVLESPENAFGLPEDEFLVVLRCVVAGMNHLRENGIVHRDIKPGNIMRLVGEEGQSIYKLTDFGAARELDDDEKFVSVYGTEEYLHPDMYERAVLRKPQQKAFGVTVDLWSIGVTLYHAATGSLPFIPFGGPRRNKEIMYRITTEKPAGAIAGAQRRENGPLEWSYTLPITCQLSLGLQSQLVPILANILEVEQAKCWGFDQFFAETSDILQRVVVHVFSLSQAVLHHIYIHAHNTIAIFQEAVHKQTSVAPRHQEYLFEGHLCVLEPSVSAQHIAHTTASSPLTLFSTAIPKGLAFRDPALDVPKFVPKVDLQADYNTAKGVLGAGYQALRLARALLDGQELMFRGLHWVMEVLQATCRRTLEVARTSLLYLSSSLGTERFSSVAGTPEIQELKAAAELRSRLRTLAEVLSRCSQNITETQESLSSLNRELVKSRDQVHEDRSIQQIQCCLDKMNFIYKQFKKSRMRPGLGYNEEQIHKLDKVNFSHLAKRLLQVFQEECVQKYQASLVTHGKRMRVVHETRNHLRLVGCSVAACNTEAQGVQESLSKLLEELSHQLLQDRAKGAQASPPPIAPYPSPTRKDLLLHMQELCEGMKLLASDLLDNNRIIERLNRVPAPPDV

TBK1 = TBK1 (Homo sapiens (Human), UniProt Q9UHD2); test: TBK1 TR-FRET enzymatic assay;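 note: phosphorylation of a biotinylated Ser/Thr peptide by purified full-length recombinant TBK1, read by TR-FRET after 240 min at 25 °C, IC50 is the geometric mean of at least four runs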
Sequence of TBK1 (Q9UHD2 whole entry): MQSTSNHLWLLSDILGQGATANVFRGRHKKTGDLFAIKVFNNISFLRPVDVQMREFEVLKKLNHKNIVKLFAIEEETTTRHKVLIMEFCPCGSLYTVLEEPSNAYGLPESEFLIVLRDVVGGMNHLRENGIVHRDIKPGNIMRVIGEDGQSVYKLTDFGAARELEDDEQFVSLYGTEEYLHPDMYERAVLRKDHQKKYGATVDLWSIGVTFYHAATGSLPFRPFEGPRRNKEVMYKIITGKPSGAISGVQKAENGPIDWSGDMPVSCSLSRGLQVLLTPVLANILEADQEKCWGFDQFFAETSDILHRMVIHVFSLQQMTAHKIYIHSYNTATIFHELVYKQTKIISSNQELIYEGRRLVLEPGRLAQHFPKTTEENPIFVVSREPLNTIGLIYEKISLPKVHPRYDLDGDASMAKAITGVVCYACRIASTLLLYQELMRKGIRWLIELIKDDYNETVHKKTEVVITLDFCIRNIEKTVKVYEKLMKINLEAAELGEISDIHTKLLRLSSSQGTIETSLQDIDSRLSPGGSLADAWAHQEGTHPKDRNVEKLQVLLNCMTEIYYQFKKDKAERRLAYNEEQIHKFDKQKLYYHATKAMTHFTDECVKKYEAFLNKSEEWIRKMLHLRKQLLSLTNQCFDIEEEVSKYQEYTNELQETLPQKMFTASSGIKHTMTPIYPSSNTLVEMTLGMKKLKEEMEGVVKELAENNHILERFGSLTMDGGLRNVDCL

Sequence of hJAK2 (O60674 whole entry): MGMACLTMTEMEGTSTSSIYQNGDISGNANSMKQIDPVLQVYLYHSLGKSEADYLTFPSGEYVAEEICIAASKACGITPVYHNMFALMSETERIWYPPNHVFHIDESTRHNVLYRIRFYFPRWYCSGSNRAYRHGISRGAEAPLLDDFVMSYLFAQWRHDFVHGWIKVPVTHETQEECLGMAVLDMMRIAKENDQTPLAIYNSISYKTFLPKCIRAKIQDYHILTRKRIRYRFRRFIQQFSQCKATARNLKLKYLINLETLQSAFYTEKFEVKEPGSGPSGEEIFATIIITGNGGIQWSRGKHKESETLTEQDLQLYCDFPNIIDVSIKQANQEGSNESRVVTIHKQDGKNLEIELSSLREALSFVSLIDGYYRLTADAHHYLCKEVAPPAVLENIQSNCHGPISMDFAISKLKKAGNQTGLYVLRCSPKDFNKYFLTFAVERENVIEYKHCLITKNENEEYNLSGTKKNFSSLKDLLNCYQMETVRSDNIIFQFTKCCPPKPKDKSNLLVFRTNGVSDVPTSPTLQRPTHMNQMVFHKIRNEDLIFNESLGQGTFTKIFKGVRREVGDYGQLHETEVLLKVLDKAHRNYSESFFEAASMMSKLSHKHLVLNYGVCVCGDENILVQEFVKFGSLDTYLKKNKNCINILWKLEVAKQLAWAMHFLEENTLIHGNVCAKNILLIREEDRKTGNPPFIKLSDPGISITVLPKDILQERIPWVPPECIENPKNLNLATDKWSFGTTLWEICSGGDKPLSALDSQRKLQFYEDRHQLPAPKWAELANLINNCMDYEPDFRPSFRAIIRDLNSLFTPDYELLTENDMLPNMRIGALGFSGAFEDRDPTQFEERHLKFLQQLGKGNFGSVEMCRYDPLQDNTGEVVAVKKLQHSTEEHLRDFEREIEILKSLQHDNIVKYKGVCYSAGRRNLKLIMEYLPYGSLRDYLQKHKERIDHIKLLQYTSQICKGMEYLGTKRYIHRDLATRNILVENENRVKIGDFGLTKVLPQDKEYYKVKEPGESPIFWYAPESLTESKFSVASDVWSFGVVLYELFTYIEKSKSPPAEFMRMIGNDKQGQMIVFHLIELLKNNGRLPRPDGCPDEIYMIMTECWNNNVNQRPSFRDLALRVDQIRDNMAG

SMILES | IC50 (hJAK2) [nM] | IC50 (IKKε) [nM] | IC50 (TBK1) [nM]
N#Cc1cc(-c2ncnc(Nc3ccc(N4CCN(C5COC5)CC4)cc3)n2)ccc1O[C@H]1CCN(C(=O)NCCO)C[C@H]1F [Example 429, (3R,4S)-4-(2-cyano-4-(4-((4-(4-(oxetan-3-yl)piperazin-1-yl)phenyl)amino)-1,3,5-triazin-2-yl)phenoxy)-3-fluoro-N-(2-hydroxyethyl)piperidine-1-carboxamide] | 601 | 33 | 12
C[C@H](O)C(=O)N1C[C@@H](C)[C@H](Oc2ccc(-c3ncnc(Nc4ccc(N5CCN(C6COC6)CC5)cc4)n3)cc2C#N)C(F)(F)C1 [Example 431, trans-2-((3,3-difluoro-1-((S)-2-hydroxypropanoyl)-5-methylpiperidin-4-yl)oxy)-5-(4-((4-(4-(oxetan-3-yl)piperazin-1-yl)phenyl)amino)-1,3,5-triazin-2-yl)benzonitrile] | 496 | 17 | 11
N#Cc1cc(-c2ncnc(Nc3ccc(N4CCN(C5COC5)CC4)cc3)n2)ccc1O[C@@H]1CCN(C(=O)c2nc(=O)[nH][nH]2)C1 [Example 435, (R)-5-(4-((4-(4-(oxetan-3-yl)piperazin-1-yl)phenyl)amino)-1,3,5-triazin-2-yl)-2-((1-(5-oxo-2,5-dihydro-1H-1,2,4-triazole-3-carbonyl)pyrrolidin-3-yl)oxy)benzonitrile] | ≥ 1000 | 292 | 411
Cn1cc(C(=O)N2C[C@@H](F)[C@@H](Oc3ccc(-c4ncnc(Nc5ccc(N6CCN(C7COC7)CC6)cc5)n4)cc3C#N)C(C)(C)C2)nn1 [Example 441, 2-(((4S,5R)-5-fluoro-3,3-dimethyl-1-(1-methyl-1H-1,2,3-triazole-4-carbonyl)piperidin-4-yl)oxy)-5-(4-((4-(4-(oxetan-3-yl)piperazin-1-yl)phenyl)amino)-1,3,5-triazin-2-yl)benzonitrile] | 88 | 2 | 3
CC1(C)CN(C(=O)CCO)C[C@@H](F)[C@H]1Oc1ccc(-c2ncnc(Nc3ccc(N4CCN(C5COC5)CC4)cc3)n2)cc1C#N [Example 443, 2-(((4S,5R)-5-fluoro-1-(3-hydroxypropanoyl)-3,3-dimethylpiperidin-4-yl)oxy)-5-(4-((4-(4-(oxetan-3-yl)piperazin-1-yl)phenyl)amino)-1,3,5-triazin-2-yl)benzonitrile] | 102 | 6 | 3
CC1(C)CN(C(=O)[C@@H]2CCC(=O)N2)C[C@H](F)[C@@H]1Oc1ccc(-c2ncnc(Nc3ccc(N4CCN(C5COC5)CC4)cc3)n2)cc1C#N [Example 444] | 476 | 88 | 27
N#Cc1cc(-c2ncnc(Nc3ccc(N4CCN(C5COC5)CC4)cc3)n2)ccc1O[C@H]1CCN(C(=O)c2ccnn2CCO)C[C@H]1F [Example 448, 2-(((3R,4S)-3-fluoro-1-(1-(2-hydroxyethyl)-1H-pyrazole-5-carbonyl)piperidin-4-yl)oxy)-5-(4-((4-(4-(oxetan-3-yl)piperazin-1-yl)phenyl)amino)-1,3,5-triazin-2-yl)benzonitrile] | 213 | 84 | 54
CC1(C)CN(C(=O)CC#N)C[C@H](F)[C@@H]1Oc1ccc(-c2ncnc(Nc3ccc(N4CCN(C5COC5)CC4)cc3)n2)cc1C#N [Example 449, 2-(((4R,5S)-1-(2-cyanoacetyl)-5-fluoro-3,3-dimethylpiperidin-4-yl)oxy)-5-(4-((4-(4-(oxetan-3-yl)piperazin-1-yl)phenyl)amino)-1,3,5-triazin-2-yl)benzonitrile] | 443 | 59 | 35
CC1(C)CN(C(=O)CC#N)C[C@@H](F)[C@H]1Oc1ccc(-c2ncnc(Nc3ccc(N4CCN(C5COC5)CC4)cc3)n2)cc1C#N [Example 450, 2-(((4S,5R)-1-(2-cyanoacetyl)-5-fluoro-3,3-dimethylpiperidin-4-yl)oxy)-5-(4-((4-(4-(oxetan-3-yl)piperazin-1-yl)phenyl)amino)-1,3,5-triazin-2-yl)benzonitrile] | 48 | 3 | 3

Now from value to molecule:

IC50 (hJAK2) [nM] | IC50 (IKKε) [nM] | IC50 (TBK1) [nM] | SMILES
≥ 1000 | 64 | 41 | CN(CCO)C(=O)N1CC[C@H](Oc2ccc(-c3ncnc(Nc4ccc(N5CCN(C6COC6)CC5)cc4)n3)cc2C#N)[C@H](F)C1 [Example 428, (3R,4S)-4-(2-cyano-4-(4-((4-(4-(oxetan-3-yl)piperazin-1-yl)phenyl)amino)-1,3,5-triazin-2-yl)phenoxy)-3-fluoro-N-(2-hydroxyethyl)-N-methylpiperidine-1-carboxamide]
≥ 1000 | 283 | 76 | C[C@@H](N)C(=O)N1CC[C@H](Oc2ccc(-c3ncnc(Nc4ccc(N5CCN(C6COC6)CC5)cc4)n3)cc2C#N)[C@H](F)C1 [Example 433, 2-(((3R,4S)-1-((R)-2-aminopropanoyl)-3-fluoropiperidin-4-yl)oxy)-5-(4-((4-(4-(oxetan-3-yl)piperazin-1-yl)phenyl)amino)-1,3,5-triazin-2-yl)benzonitrile]
110 | 51 | 22 | CC1(C)CNC[C@@H](F)[C@H]1Oc1ccc(-c2ncnc(Nc3ccc(N4CCN(C5COC5)CC4)cc3)n2)cc1C#N [Example 440, 2-(((4S,5R)-5-fluoro-3,3-dimethylpiperidin-4-yl)oxy)-5-(4-((4-(4-(oxetan-3-yl)piperazin-1-yl)phenyl)amino)-1,3,5-triazin-2-yl)benzonitrile]
125 | 3 | 3 | CC1(C)CN(C(=O)c2ccn[nH]2)C[C@@H](F)[C@H]1Oc1ccc(-c2ncnc(Nc3ccc(N4CCN(C5COC5)CC4)cc3)n2)cc1C#N [Example 442, 2-(((4S,5R)-5-fluoro-3,3-dimethyl-1-(1H-pyrazole-5-carbonyl)piperidin-4-yl)oxy)-5-(4-((4-(4-(oxetan-3-yl)piperazin-1-yl)phenyl)amino)-1,3,5-triazin-2-yl)benzonitrile]
90 | 5 | 5 | CC1(C)CN(C(=O)[C@@H]2CCC(=O)N2)C[C@@H](F)[C@H]1Oc1ccc(-c2ncnc(Nc3ccc(N4CCN(C5COC5)CC4)cc3)n2)cc1C#N [Example 445, 2-(((4S,5R)-5-fluoro-3,3-dimethyl-1-((S)-5-oxopyrrolidine-2-carbonyl)piperidin-4-yl)oxy)-5-(4-((4-(4-(oxetan-3-yl)piperazin-1-yl)phenyl)amino)-1,3,5-triazin-2-yl)benzonitrile]
153 | 33 | 48 | N#Cc1cc(-c2ncnc(Nc3ccc(N4CCN(C5COC5)CC4)cc3)n2)ccc1OC1CNC(=O)C(F)(F)C1 (stereo not drawn) [Example 446, 2-((5,5-difluoro-6-oxopiperidin-3-yl)oxy)-5-(4-((4-(4-(oxetan-3-yl)piperazin-1-yl)phenyl)amino)-1,3,5-triazin-2-yl)benzonitrile]
15 | 197 | 65 | NC(=O)c1cc(-c2ncnc(Nc3ccc(N4CCN(C5COC5)CC4)cc3)n2)ccc1OC1CNC(=O)C(F)(F)C1 (stereo not drawn) [Example 447, 2-((5,5-difluoro-6-oxopiperidin-3-yl)oxy)-5-(4-((4-(4-(oxetan-3-yl)piperazin-1-yl)phenyl)amino)-1,3,5-triazin-2-yl)benzamide]
